Paper PMC11241340, “The Discovery of Novel α2a Adrenergic Receptor Agonists Only Coupling to Gαi/O Proteins by Virtual Screening” (International Journal of Molecular Sciences, 2024)
Substitutions are numbered along the chain they refer to.

Columns and labels:
α2B-AR [1] = molecular target: T1, α2B-AR (Homo sapiens, UniProt P18089); experiment: GloSensor cAMP assay in HEK293 cells transfected with α2B-AR; assay type: cell-based; parameters: Flag; expressed in transfected cells; host or cells: HEK293; conditions: for effect of pretreatment on cAMP accumulation induced by DMED (antagonist activity): α2B-AR-HEK293 cells, 10 μM; for effect on cAMP accumulation (agonist activity) in α2B-AR cells: HEK293 α2B-AR, DMED 10^−10–10^−7M, P300–2342 10^−10–10^−5M
T1 sequence (P18089 1-450): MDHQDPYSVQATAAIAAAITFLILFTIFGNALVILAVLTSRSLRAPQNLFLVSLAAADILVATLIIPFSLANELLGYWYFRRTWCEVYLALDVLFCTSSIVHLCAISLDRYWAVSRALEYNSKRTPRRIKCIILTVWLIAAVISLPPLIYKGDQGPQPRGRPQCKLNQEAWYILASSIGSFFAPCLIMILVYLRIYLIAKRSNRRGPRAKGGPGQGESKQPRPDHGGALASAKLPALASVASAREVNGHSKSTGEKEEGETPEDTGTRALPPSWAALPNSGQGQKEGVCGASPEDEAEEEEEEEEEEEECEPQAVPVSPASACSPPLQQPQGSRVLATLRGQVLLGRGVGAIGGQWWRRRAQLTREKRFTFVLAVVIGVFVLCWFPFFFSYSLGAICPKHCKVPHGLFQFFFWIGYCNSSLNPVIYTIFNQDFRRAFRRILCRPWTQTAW

α2B-AR [2] = molecular target: T1, α2B-AR; experiment: Competitive inhibition of [3H] Rauwolscine binding, CHO-K1 membranes
[3] = molecular target: T2, α2A-AR mutant V114A (α2AV114A-AR) (Homo sapiens, UniProt P08913, V129A); experiment: GloSensor cAMP assay in HEK293 cells transfected with α2AV114A-AR; assay type: cell-based; conditions: forskolin 10 μM
T2 construct: Flag; expressed in transfected cells; host or cells: HEK293
T2 sequence (P08913 1-465 V129A): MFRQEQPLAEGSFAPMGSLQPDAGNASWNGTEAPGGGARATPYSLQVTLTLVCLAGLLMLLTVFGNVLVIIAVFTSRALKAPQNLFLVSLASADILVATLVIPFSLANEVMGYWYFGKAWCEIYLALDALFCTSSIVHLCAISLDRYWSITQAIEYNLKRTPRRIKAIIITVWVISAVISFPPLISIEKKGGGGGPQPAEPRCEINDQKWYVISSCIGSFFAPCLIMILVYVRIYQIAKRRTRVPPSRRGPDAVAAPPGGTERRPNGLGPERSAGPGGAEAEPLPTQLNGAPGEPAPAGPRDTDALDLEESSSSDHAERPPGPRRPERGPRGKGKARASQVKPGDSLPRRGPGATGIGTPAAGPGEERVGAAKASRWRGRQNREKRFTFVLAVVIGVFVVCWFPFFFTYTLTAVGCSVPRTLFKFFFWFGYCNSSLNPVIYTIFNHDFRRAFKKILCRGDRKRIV
Experimental: (§1) According to the GloSensor cAMP biosensor (Promega, Shanghai, China) manufacturer protocols, HEK293 cells were co-transfected with the pGloSensor-22F cAMP plasmid (Promega, E1171) and pCMV6 Entry-Flag-α2A-AR. After 24 h, the cells were seeded in white 96-well plates. The next day, the cell media were replaced by 90 μL of fresh DMEM with 2% v/v GloSensor cAMP reagent (Promega, E1290) and incubated for 60 min at 37 °C. Before drug stimulation, an initial measurement of the baseline signal was detected. […] PTX 500 ng/mL pretreatment for 24 h was used to assay the chemical effects on Gi coupling following α2A-AR activation. Two mutations, V114A and Y394A were introduced into the α2A-AR genes, respectively, using standard QuickChange PCR. […] In each experiment, the cAMP assay used pcDNA3.1 myc/hisB transfected cells as a negative control and cells stimulated with 10 μM of forskolin as a positive control. The signal was read using a Victor 2D Instrument (PerkinElmer) at 675 nm. The production of cAMP% was calculated (the signal value after chemicals addition–baseline signal value)/the baseline signal value *100 as described in our previous study.

C57/B6 mice = conditions: 432 nmol/kg, i.p.
Experimental: C57BL/6 mice (20–22 g) were purchased from the SPF biotechnology co., LTD (Beijing, China). All the animals were housed in an alternating 12 h light/12 h dark cycle room, which was maintained in a climate-controlled environment (25 ± 1 °C). Animals had free access to water and food. All the experimental procedures were reviewed and approved by the ethics committee and institutional animal care and use committee of the Beijing Institute of Pharmacology and Toxicology, Beijing, China (IACUC of AMMS–06–2017–001). Animals were assigned to groups randomly before testing. Testing occurred within the same approximate time of day between experiments. The experimenter was blinded to treatment throughout the course of behavioral testing.
The LORR in C57/B6 mice were used to study the effects of screening compounds.

α2A-AR [4] = molecular target: T3, α2A-AR (Homo sapiens, UniProt P08913); experiment: GloSensor cAMP assay in HEK293 cells transfected with α2A-AR; assay type: cell-based; parameters: Flag; expressed in transfected cells; host or cells: HEK293; conditions: for decrease in cAMP accumulation after pertussis toxin pretreatment: PTX 500 ng/mL, 24 h; for increase of cAMP accumulation (Gαs coupling) / decrease of cAMP accumulation stimulated by forskolin (Gαi/o coupling): α2A-AR HEK293, P300–2342 10^−10–10^−5M; for increase of cAMP accumulation (Gαs coupling): DMED 10^−8–10^−5M; for decrease of cAMP accumulation stimulated by forskolin (Gαi/o coupling): FSK 10^−5M, DMED 10^−13–10^−9M
T3 sequence (P08913 1-465): T2 sequence (P08913 1-465 V129A) with A129V
Experimental: as §1

[5] = molecular target: T4, α2A-AR mutant Y394A (α2AY394A-AR) (Homo sapiens, UniProt P08913, Y409A); experiment: GloSensor cAMP assay in HEK293 cells transfected with α2AY394A-AR; assay type: cell-based; conditions: forskolin 10 μM
T4 construct: Flag; expressed in transfected cells; host or cells: HEK293
T4 sequence (P08913 1-465 Y409A): T2 sequence (P08913 1-465 V129A) with A129V, Y409A
Experimental: as §1

α2A-AR [6] = molecular target: T3, α2A-AR; experiment: Competitive inhibition of [3H] Rauwolscine binding, CHO-K1 membranes
C57BL/6 mice = experiment: Spontaneous locomotor activity of mice; assay type: in vivo, mouse; conditions: for inhibition of mice locomotor activity compared to solvent: 10 nmol/mice, i.c.v.
Source text: Animals had free access to water and food. […] Animals were assigned to groups randomly before testing.

Structure (SMILES) | effect of pretreatment on cAMP accumulation induced by DMED (antagonist activity) (α2B-AR [1]) | IC50 (α2B-AR [2]) [µM] | cAMP production in α2AV114A-AR compared to α2A-AR wild type [3] | decrease of cAMP production in α2AV114A-AR cells [3] | LORR induced in mice (C57/B6 mice) [%] | effect on cAMP accumulation (agonist activity) in α2B-AR cells (α2B-AR [1]) | decrease in cAMP accumulation after pertussis toxin pretreatment (α2A-AR [4]) | increase of cAMP accumulation (Gαs coupling) (α2A-AR [4]) | decrease of cAMP accumulation stimulated by forskolin (Gαi/o coupling) (α2A-AR [4]) | cAMP production in α2AY394A-AR compared to α2A-AR wild type [5] | decrease of cAMP production in α2AY394A-AR cells [5] | IC50 (α2A-AR [6]) [µM] | maximum binding inhibition of [3H] Rauwolscine, α2A-AR (α2A-AR [6]) [%] | maximum binding inhibition of [3H] Rauwolscine, α2B-AR (α2B-AR [2]) [%] | inhibition of mice locomotor activity compared to solvent (C57BL/6 mice) | effect on cAMP accumulation in presence of α2A-AR selective antagonist BRL44408 (α2A-AR [4]; BRL44408 1 μM) | antagonism of the locomotor inhibition by α2-AR antagonist atipamezole (C57BL/6 mice; compound 10 nmol/mice i.c.v., atipamezole 0.2 mg/kg i.p.) | locomotor activity of mice (abstract statement) (C57BL/6 mice; p < 0.05, dose not given)
COc1ccccc1N1CCN(CCN2C(=O)c3ccccc3C(C)(C)C2=O)CC1 [ARC239, reference compound] | decreased |  |  |  |  |  |  |  |  |  |  |  |  |  |  |  |  | 
Cc1cccc([C@H](C)c2cnc[nH]2)c1C [DMED, Dexmedetomidine, reference compound] |  | 0.0146 | increased | did not decrease | 50 | concentration-dependently increased | abolished | concentration-dependently increased | concentration-dependently decreased | increased | did not decrease |  |  |  |  |  |  | 
CCN(CC)CCNC(=O)c1ccc2c(c1)n(Cc1ccccc1)c(=O)c1ccnn12 [P300–1500] | no effects | 19 |  |  |  | no activation |  | without increasing | decreased |  |  | 9.66 | 90 | 85 | 30%–60% |  |  | 
CCN(CC)CCNC(=O)c1ccc2c(c1)n(Cc1cccc(F)c1)c(=O)c1ccnn12 [P300–2342] | slightly decreased |  |  | did not decrease |  | no effect | abolished | without increasing | concentration-dependently decreased |  | did not decrease |  | 83 | 71 |  | antagonized | could be antagonized | significantly decreased
O=C(NCCN1CCCCC1)c1ccc2c(c1)n(Cc1cccc(F)c1)c(=O)c1ccnn12 [P300–2344] | no effects | 15.9 |  |  |  | no activation |  | without increasing | decreased |  |  | 11.3 | 91 | 86 | 30%–60% |  |  | 
CN(C)CCNC(=O)c1ccc2c(c1)n(Cc1cccc(F)c1)c(=O)c1ccnn12 [T226–1970] | slightly decreased | 8.56 |  |  |  | no activation |  | without increasing | decreased |  |  | 19.5 | 85 | 94 | 30%–60% |  |  | 
